In one data set the test system is SW480 cells. In words: MTT cell viability assay, SW480. The data set is classed as cell-based. The settings on record: 5-200 µg/mL, 24 h. On the procedure: (§1) According to the biodistribution results of Lu and LuG in the previous step, three cell lines were selected for further analysis. HUVEC cell line (an endothelial cell that was isolated from the umbilical cord vein) as a normal cell, SW480 as a colorectal cancer cell line, and HepG2 as a hepatocellular carcinoma cell line were obtained from the cell bank of Roshd Azma Company. They were cultured in Dulbecco’s Modified Eagle Medium (DMEM) supplemented with FBS 10% (Fetal Bovine Serum) and Pen/Sterp 10^4 U/mL (Penicillin- Streptomycin) at 37°C and 5% carbon dioxide (CO2). Then, 10^5 cells/mL were seeded in 96-well cell culture plates and incubated for 24 h.
(§2) After 24 h, the cell lines were treated with Lu and LuG (5, 10, 25, 50, 75, 100, 200 µg/mL). The cytotoxicity effect of Lu and LuG was measured using the MTT (3-[4,5-dimethylthiazol-2-yl]- 2,5-diphenyltetrazolium bromide) assay for 24 h. Next, 20 μL of MTT solution (5 mg/mL) was added to each well, and the complexes were incubated at 37°C for 4 hours. Afterward, the culture medium was removed and replaced with DMSO 200 μL). The absorbance of each well was determined at 570 nm using an ELISA reader, and the cell viability percentage was calculated relative to the control group.
(Formazan colour is commonly taken as a measure of viable cells.)

For data set [1], the system named is HepG2 cells. Nature of the data set: MTT cell viability assay, HepG2. The data set is classed as cell-based. As to conditions: 5-200 µg/mL, 24 h (LuG also 48 and 72 h). The protocol:
as §1, §2

In the next data set the test system is HUVEC cells. In words: MTT cell viability assay, HUVEC normal cells. The data set is classed as cell-based. As to conditions: 5-200 µg/mL, 24 h. On the procedure: as §1, §2
In data set [2] the test system is HepG2 cells. As to conditions: cited from earlier work.
Data set [3] can be described thus: Biodistribution of 99mTc-radiolabeled flavonoids, organ radioactivity after SPECT imaging. Details: species or system Wistar-Albino rats. As to conditions: rat, in vivo. The protocol: Five milligrams of tin chloride (SnCl2) was dissolved in 1 mL of hydrochloric acid 10% and diluted with 3 mL of distilled water, and the pH was adjusted to 7. Then, 1 mg of Lu and LuG and about 4 mCi of fresh pertechnetate (^99mTcO4) in 2 mL of NaCl were added to the complex. Afterward, it was incubated at room temperature for 20 minutes.
An intraperitoneal injection of a ketamine and xylazine mixture anesthetized the Wistar-Albino rats. About 1.4 mCi of flavonoid-^99mTc complex (^99mTc-Lu and ^99mTc-LuG) was injected through the tail vein. The imaging was performed using SPECT (Single-Photon Emission Computed Tomography) at 0, 5, 15, 30, 60, and 90 min. Then, the animals were sacrificed in accordance with all ethical considerations, and each organ was carefully separated. The percentage of radioactivity in each organ was calculated by dividing the activity counted by the dose calibrator by the total radioactivity. This method ensured accurate assessment of the biodistribution of the radiolabeled compounds within the various organs.
Organ accumulation of ^99mTc−Lu/^99mTc−LuG (%)=(Amount of radioactivity counted in each organ/Amount of radioactivity counted in whole body)×100

Data set [4] concerns HepG2 cells. Nature of the data set: Annexin V-FITC/PI flow cytometry for apoptosis/necrosis. The format is cell-based. As to conditions: HepG2, 5, 30, 50 µg/mL. On the procedure:
According to the results of the previous steps, LuG was selected for flow cytometry testing on the HepG2 cancer cell line. […] HepG2 cells were treated with LuG (5, 30, 50 µg/mL) for 48 h and then washed with PBS. Next, 300 µL of binding buffer was added to 1 × 10^6 cells and incubated for 15 min at 25°C in away from the light with 4 µL of FITC Annexin V and 2 µL of PI. To investigate apoptotic or necrotic pathways, data were analyzed by FlowJo software. […] Additionally, cells without any treatment (negative control) and those treated with LuG (positive control) were designated as “Auto” and “Unstained”, respectively.

Data set [5] concerns HepG2 cells. In words: Cell cycle analysis by PI flow cytometry. The data set is classed as cell-based. On the procedure:
HepG2 cells were seeded in 6-well plates and treated with various concentrations of Luteolin-7-O-glucoside for 24 h. After treatment, the cells were fixed in a solution of ethanol: water (7:3) at -20 °C. Then, ethanol-fixed cells were washed with PBS and incubated with RNase A (100 μL) for 30 min. Following the RNase treatment, the cells were incubated in a PI/Triton X-100 solution for an additional 30 minutes. The samples were analyzed using a flow cytometer (FACSCalibur), and the data were assessed with FlowJo version 10. Finally, the G0/G1 phase (2N DNA content), S phase (intermediate DNA content), and G2/M phase (4N DNA content) were calculated.[13]

Data set [6] concerns HepG2 cells. Details: method as in PMID 24257119. As to conditions: 24 h treatment; cited from earlier work.
Data set [7] concerns HepG2 cells. Details: method as in PMID 32129972. The settings on record: cited from earlier work.
The mark [8] stands for this setting: listed as luteolin-7-O-glucoside.

Consider two molecules from article PMC13408522, “The Effect of Glycosylation on Biodistribution and Cytotoxicity of ^99mTc-Radiolabeled Luteolin” (Advanced Pharmaceutical Bulletin, 2025).

Molecules are shown by their SMILES. “Also recorded” adds a separate entry of the source. Where two headings read alike, the source gives them in different places.

For `O=c1cc(-c2ccc(O)c(O)c2)oc2cc(O)cc(O)c12` [Lu, 3′,4′,5,7-tetrahydroxy flavone], in the data set on SW480 cells, the “cytotoxicity on SW480 cells (in words)” value was “no inhibitory effects”. The “cytotoxicity on HepG2 cells (in words)” value is “less accumulation and cytotoxicity” in the data set on HepG2 cells [1]; “less effective against HepG2 cells compared to the glycone form” in the data set on HepG2 cells [1] (listed as luteolin). Also, the “cytotoxicity on normal HUVEC cells (in words)” value in the data set with HUVEC cells was “did not demonstrate any cytotoxicity”. In addition, in the data set with HepG2 cells [2] (luteolin: ref 32), the “apoptosis in HepG2 cells” value is “triggers classical mitochondrial apoptosis”.

As to `O=c1cc(-c2ccc(O)c(O)c2)oc2cc(O[C@@H]3O[C@H](CO)[C@@H](O)[C@H](O)[C@H]3O)cc(O)c12` [LuG, luteolin-7-O-glucoside], in the data set on SW480 cells, the “cytotoxicity on SW480 cells (in words)” value is listed as “negligible toxicity; also recorded: no inhibitory effects”. In addition, the “elimination phase of the radiolabeled compound (in words)” value in data set [3] is reported as “more rapidly than that of its aglycone form”. Also, the “cytotoxicity on HepG2 cells (in words)” value in the data set with HepG2 cells [1] is “significant cytotoxicity”. The “cytotoxicity on HepG2 cells (in words)” value in the data set on HepG2 cells [1] (setting [8]) is reported as “highest cytotoxic effect; also recorded: effectively inhibits HepG2 cell viability”. Also, in the data set on HUVEC cells, the “cytotoxicity on normal HUVEC cells (in words)” value was “negligible toxicity; also recorded: did not demonstrate any cytotoxicity”. Moreover, the “apoptosis/necrosis of HepG2 cells (in words)” value with HepG2 cells [4] is reported as “non-apoptotic cell death; also recorded: no significant increase”. In the data set with HepG2 cells [4] (setting [8]), the “apoptosis/necrosis of HepG2 cells (in words)” value was “did not involve necrotic or apoptotic pathways”. For the same molecule, the “effect on cell cycle progression (in words)” value in the data set with HepG2 cells [5] (HepG2) is listed as “impaired G1 to S progression”. Moreover, in the data set with HepG2 cells [5] (HepG2, 24 h), the “change in S phase versus control” value is on record as “no significant changes”, the “decrease of 4N DNA content (G2/M phase) versus control” value is “about 7%” and the “increase of 2N DNA content (G0/G1 phase) versus control” value was “approximately 5%”. In the data set with HepG2 cells [2] (LuG: ref 31), the “apoptosis in HepG2 cells” value is given as “induced apoptotic features”. In addition, in the data set on HepG2 cells [6], the “cell cycle effect in HepG2” value is “induced G2/M phase”. Also, in the data set on HepG2 cells [7], the “effect on viability of HepG2 cell line” value is on record as “dose-dependent effect”.
